Tests used:
Type in all cases: toxicity, cell-based
[1] = test system: U2OS; assay: Incucyte cell viability with U2OS; conditions: human, 10 µM, compound concentration 10 uM
[2] = test system: Fibroblast; assay: Incucyte cell viability with human fibroblast; conditions: 10 µM, compound concentration 10 uM
[3] = test system: HEK-293T; assay: Incucyte cell viability with HEK293T; conditions: human, 10 µM, compound concentration 10 uM
[4] = 0 h, replicate number 1, timepoint 0 hours
[5] = 6 h, replicate number 2, timepoint 6 hours
[6] = 12 h, replicate number 1, timepoint 12 hours
[7] = 18 h, replicate number 1, timepoint 18 hours
[8] = 24 h, replicate number 1, timepoint 24 hours
[9] = 6 h, replicate number 1, timepoint 6 hours
[10] = 18 h, replicate number 2, timepoint 18 hours
[11] = 24 h, replicate number 2, timepoint 24 hours
[12] = 12 h, replicate number 2, timepoint 12 hours
[13] = 0 h, replicate number 2, timepoint 0 hours
Further: filed as whole numbers so only -1 and 0 and 1 occur.

## CC(C)(O)c1ccccc1CC[C@@H](SCC1(CC(=O)[O-])CC1)c1cccc(/C=C/c2ccc3ccc(Cl)cc3n2)c1.[Na+] [MONTELUKAST SODIUM]
[1]; [4]
  Growth Rate: 0
[1]; [5]
  Growth Rate: 0
[1]; [6]
  Growth Rate: 1
[1]; [7]
  Growth Rate: 1
[1]; [8]
  Growth Rate: 1
[2]; [4]
  Growth Rate: 0
[2]; [5]
  Growth Rate: 0
[2]; [6]
  Growth Rate: 1
[2]; [7]
  Growth Rate: 1
[2]; [8]
  Growth Rate: 1
[3]; [4]
  Growth Rate: 0
[3]; [9]
  Growth Rate: 1
[3]; [5]
  Growth Rate: 0
[3]; [6]
  Growth Rate: 0
[3]; [7]
  Growth Rate: 1
[3]; [10]
  Growth Rate: 0
[3]; [8]
  Growth Rate: 1
[3]; [11]
  Growth Rate: 0

## CO[C@@H](C)c1c(Nc2ccc([C@H](N(C)C(=O)C3CCS(=O)(=O)CC3)C(F)(F)F)cc2)cnc2cc(Cl)nn12 [NVS-MALT1]
[1]; [4]
  Growth Rate: 0
[1]; [9]
  Growth Rate: 0
[1]; [5]
  Growth Rate: 1
[1]; [6]
  Growth Rate: 1
[1]; [12]
  Growth Rate: 0
[1]; [7]
  Growth Rate: 1
[1]; [8]
  Growth Rate: 1
[2]; [13]
  Growth Rate: 0
[2]; [9]
  Growth Rate: 0
[2]; [5]
  Growth Rate: 1
[2]; [6]
  Growth Rate: 0
[2]; [12]
  Growth Rate: 1
[2]; [7]
  Growth Rate: 0
[2]; [10]
  Growth Rate: 1
[2]; [8]
  Growth Rate: 0
[2]; [11]
  Growth Rate: 1
[3]; [4]
  Growth Rate: 0
[3]; [13]
  Growth Rate: 1
[3]; [5]
  Growth Rate: 0
[3]; [6]
  Growth Rate: 0
[3]; [7]
  Growth Rate: 0
[3]; [8]
  Growth Rate: 0

## Cc1cc(C(C)(C)C)c(O)c(C)c1CC1=NCCN1.Cl [OXYMETAZOLINE HYDROCHLORIDE]
[1]; [9]
  Growth Rate: 0
[1]; [5]
  Growth Rate: 1
[1]; [6]
  Growth Rate: 0
[1]; [12]
  Growth Rate: 1
[1]; [7]
  Growth Rate: 0
[1]; [8]
  Growth Rate: 0
[1]; [11]
  Growth Rate: 1
[2]; [4]
  Growth Rate: 0
[2]; [5]
  Growth Rate: 1
[2]; [6]
  Growth Rate: 1
[2]; [7]
  Growth Rate: 1
[2]; [8]
  Growth Rate: 1
[2]; [11]
  Growth Rate: 0
[3]; [4]
  Growth Rate: 0
[3]; [9]
  Growth Rate: 1
[3]; [5]
  Growth Rate: 0
[3]; [6]
  Growth Rate: 1
[3]; [12]
  Growth Rate: 0
[3]; [7]
  Growth Rate: 1
[3]; [10]
  Growth Rate: 0
[3]; [8]
  Growth Rate: 1
[3]; [11]
  Growth Rate: 0

## C[C@H](c1ccc(F)cc1)N(Cc1cccc(C(=O)O)c1)C(=O)c1cnc2ccccc2c1 [PF-05105679]
[1]; [13]
  Growth Rate: 0
[1]; [9]
  Growth Rate: 0
[1]; [5]
  Growth Rate: 1
[1]; [6]
  Growth Rate: 0
[1]; [12]
  Growth Rate: 1
[1]; [7]
  Growth Rate: 0
[1]; [10]
  Growth Rate: 1
[1]; [8]
  Growth Rate: 0
[1]; [11]
  Growth Rate: 1
[2]; [4]
  Growth Rate: 0
[2]; [5]
  Growth Rate: 0
[2]; [6]
  Growth Rate: 1
[2]; [7]
  Growth Rate: 1
[2]; [8]
  Growth Rate: 1
[3]; [4]
  Growth Rate: 1
[3]; [13]
  Growth Rate: 0
[3]; [9]
  Growth Rate: 0
[3]; [5]
  Growth Rate: 1
[3]; [6]
  Growth Rate: 1
[3]; [12]
  Growth Rate: 0
[3]; [7]
  Growth Rate: 1
[3]; [8]
  Growth Rate: 1
[3]; [11]
  Growth Rate: 0

## Cl.Clc1ccc(CCCOCCCN2CCCCC2)cc1 [PITOLISANT HYDROCHLORIDE]
[1]; [4]
  Growth Rate: 0
[1]; [6]
  Growth Rate: 1
[1]; [7]
  Growth Rate: 1
[1]; [8]
  Growth Rate: 1
[2]; [4]
  Growth Rate: 0
[2]; [7]
  Growth Rate: 1
[2]; [8]
  Growth Rate: 1
[3]; [13]
  Growth Rate: 0
[3]; [9]
  Growth Rate: 0
[3]; [6]
  Growth Rate: 0
[3]; [7]
  Growth Rate: 0
[3]; [8]
  Growth Rate: 0

## COc1ccc(S(=O)(=O)N2c3ccc(Cl)cc3[C@](O)(c3ccccc3Cl)[C@@H]2C(=O)N2CCC[C@H]2C(N)=O)cc1OC [RELCOVAPTAN]
[1]; [9]
  Growth Rate: 1
[1]; [5]
  Growth Rate: 0
[1]; [6]
  Growth Rate: 0
[1]; [7]
  Growth Rate: 0
[1]; [8]
  Growth Rate: 0
[1]; [11]
  Growth Rate: 1
[2]; [4]
  Growth Rate: 0
[2]; [13]
  Growth Rate: 1
[2]; [9]
  Growth Rate: 0
[2]; [6]
  Growth Rate: 0
[2]; [7]
  Growth Rate: 0
[2]; [8]
  Growth Rate: 0
[3]; [4]
  Growth Rate: 1
[3]; [13]
  Growth Rate: 0
[3]; [9]
  Growth Rate: 0
[3]; [6]
  Growth Rate: 0
[3]; [7]
  Growth Rate: 0
[3]; [8]
  Growth Rate: 0

## O[C@H]1CC[C@H](Nc2ncc3nc(Nc4c(F)cc(F)cc4F)n([C@H]4CCOC4)c3n2)CC1 [TANZISERTIB]
[1]; [4]
  Growth Rate: 0
[1]; [13]
  Growth Rate: 1
[1]; [9]
  Growth Rate: 0
[1]; [6]
  Growth Rate: 0
[1]; [7]
  Growth Rate: 0
[1]; [8]
  Growth Rate: 0
[2]; [13]
  Growth Rate: 0
[2]; [9]
  Growth Rate: 0
[2]; [6]
  Growth Rate: 1
[2]; [12]
  Growth Rate: 0
[2]; [7]
  Growth Rate: 1
[2]; [8]
  Growth Rate: 1
[3]; [4]
  Growth Rate: 0
[3]; [13]
  Growth Rate: 1

## COCCOc1nc(-c2ccc(Cl)nc2)nc2c1CN(C(=O)c1ncn3ccccc13)CC2 [THPP-1]
[1]; [4]
  Growth Rate: 0
[1]; [9]
  Growth Rate: 0
[1]; [5]
  Growth Rate: 1
[1]; [6]
  Growth Rate: 1
[1]; [7]
  Growth Rate: 0
[1]; [8]
  Growth Rate: 0
[2]; [4]
  Growth Rate: 0
[2]; [9]
  Growth Rate: 0
[2]; [6]
  Growth Rate: 1
[2]; [12]
  Growth Rate: 0
[2]; [7]
  Growth Rate: 1
[2]; [10]
  Growth Rate: 0
[2]; [8]
  Growth Rate: 1
[2]; [11]
  Growth Rate: 0
[3]; [4]
  Growth Rate: 0
[3]; [13]
  Growth Rate: 1
[3]; [5]
  Growth Rate: 0
[3]; [12]
  Growth Rate: 0
[3]; [7]
  Growth Rate: 1
[3]; [8]
  Growth Rate: 1
[3]; [11]
  Growth Rate: 0

## Cc1ccccc1C(=O)Nc1ccc(C(=O)N2CCCC(O)c3cc(Cl)ccc32)c(C)c1 (stereo not given) [TOLVAPTAN]
[1]; [9]
  Growth Rate: 0
[1]; [6]
  Growth Rate: 0
[1]; [7]
  Growth Rate: 0
[1]; [8]
  Growth Rate: 1
[2]; [4]
  Growth Rate: 1
[2]; [9]
  Growth Rate: 0
[2]; [6]
  Growth Rate: 1
[2]; [12]
  Growth Rate: 0
[2]; [7]
  Growth Rate: 1
[2]; [10]
  Growth Rate: 0
[2]; [8]
  Growth Rate: 1
[2]; [11]
  Growth Rate: 0
[3]; [4]
  Growth Rate: 1
[3]; [13]
  Growth Rate: 0
[3]; [9]
  Growth Rate: 0
[3]; [6]
  Growth Rate: 0
[3]; [7]
  Growth Rate: 0
[3]; [8]
  Growth Rate: 0

## Cc1cc(-n2nc(Cc3cc(F)cc(C(F)(F)F)c3)nc2C)ccc1C(N)=O [TP-024]
[1]; [9]
  Growth Rate: 0
[1]; [5]
  Growth Rate: 1
[1]; [6]
  Growth Rate: 0
[1]; [12]
  Growth Rate: 1
[1]; [7]
  Growth Rate: 0
[1]; [10]
  Growth Rate: 1
[1]; [8]
  Growth Rate: 0
[1]; [11]
  Growth Rate: 1
[2]; [4]
  Growth Rate: 0
[2]; [13]
  Growth Rate: 1
[2]; [9]
  Growth Rate: 1
[2]; [5]
  Growth Rate: 0
[2]; [6]
  Growth Rate: 1
[2]; [12]
  Growth Rate: 0
[2]; [7]
  Growth Rate: 1
[2]; [10]
  Growth Rate: 0
[2]; [8]
  Growth Rate: 1
[2]; [11]
  Growth Rate: 0
[3]; [4]
  Growth Rate: 1
[3]; [13]
  Growth Rate: 0
[3]; [9]
  Growth Rate: 0
[3]; [6]
  Growth Rate: 0
[3]; [7]
  Growth Rate: 0
[3]; [8]
  Growth Rate: 0

## CN1CCc2c(c3ccccc3n2Cc2ccc(C(=O)NO)cc2)C1 [TUBASTATIN A]
[1]; [4]
  Growth Rate: 0
[1]; [9]
  Growth Rate: 1
[1]; [6]
  Growth Rate: 1
[1]; [7]
  Growth Rate: 1
[1]; [8]
  Growth Rate: 1
[2]; [4]
  Growth Rate: 1
[2]; [5]
  Growth Rate: 0
[2]; [12]
  Growth Rate: 0
[2]; [7]
  Growth Rate: 1
[2]; [10]
  Growth Rate: 0
[2]; [8]
  Growth Rate: 1
[3]; [4]
  Growth Rate: 0
[3]; [13]
  Growth Rate: 1

## COc1cc(C(=O)NS(=O)(=O)c2ccccc2C)ccc1Cc1cn(C)c2ccc(NC(=O)OC3CCCC3)cc12 [ZAFIRLUKAST]
[1]; [4]
  Growth Rate: 0
[1]; [5]
  Growth Rate: 1
[1]; [6]
  Growth Rate: 1
[1]; [7]
  Growth Rate: 1
[1]; [8]
  Growth Rate: 1
[2]; [4]
  Growth Rate: 0
[2]; [9]
  Growth Rate: 1
[2]; [5]
  Growth Rate: 0
[2]; [6]
  Growth Rate: 0
[2]; [7]
  Growth Rate: 1
[2]; [10]
  Growth Rate: 0
[2]; [8]
  Growth Rate: 0
[3]; [4]
  Growth Rate: 0
[3]; [9]
  Growth Rate: 1
[3]; [6]
  Growth Rate: 1
[3]; [12]
  Growth Rate: 0
[3]; [7]
  Growth Rate: 1
[3]; [10]
  Growth Rate: 0
[3]; [8]
  Growth Rate: 1
[3]; [11]
  Growth Rate: 0

Reference: ChEMBL document CHEMBL4689842, “EUbOPEN Chemogenomics Library wave 1” (2021)
